In US7820629B2, “Galactose derivative, drug carrier and medicinal composition” (Nippon Shinyaku Co., Ltd., priority 2006, dated 2010):

Tested on: HuH-7 cells (human hepatoma cell line)
Experiment: Evaluation of liver-targeting: uptake of tritium-labeled siRNA composition
Assay type: cell-based
Conditions: carriers of Examples 2 to 6 or Comparative Example 1 with tritium-labeled siRNA 100 nM, eight hours, by content (mg) of the Example 1 derivative
Protocol: (1) Preparation of a Nucleic Acid Solution
A nucleic acid solution containing a tritium-labeled siRNA composed of an oligo RNA having a sequence of SEQ ID NO 1 and an oligo RNA having a sequence of SEQ ID NO 2 was prepared by introducing tritium-labeled [2,5′,8-3H]adenosine 5′-triphosphate ammonium salt (manufactured by Amersham Bioscience), using in-vitro Transcription T7 Kit (manufactured by Takara Bio). The siRNA concentration in the nucleic acid solution was 20 μM. The specific activity was 6.4×10^5 dpm/μg.
341.25 μL of a nucleic acid solution containing 20 μM of a tritium-unlabeled siRNA composed of an oligo RNA having a sequence of SEQ ID NO 1 and an oligo RNA having a sequence of SEQ ID NO 2 was added to 8.75 μL of the nucleic acid solution prepared in the above step, thereby preparing a nucleic acid solution having a specific activity of 1.6×10^4 dpm/μg.
(2) Preparation of a Composition […]
HuH-7 cells (human hepatoma cell line) were seeded on a 6-well plate at 2.5×10^5 cells/well, and were incubated for 18 hours at 37° C. under 5% CO2. […] 4 mL of a liquid scintillation cocktail (Emulsifier Scintillator Plus, manufactured by Perkin Elmer) was added to each of the vials and mixed well, and the radioactivity was counted with a liquid scintillation counter (manufactured by Perkin Elmer).

In the case of “N-[1-(D)-deoxylactito-1-yl]oleamide [Example 1]”, the “liver-targeting potency (radioactivity of cells, FIG. 1)” value was “increases depending on the content”.
